Data as given in patent US9469617B2, “Molecules having certain pesticidal utilities, and intermediates, compositions, and processes related thereto” (priority 2014, dated 2016).
Where two headings read alike, the source gives them in different places.

Legend:
Type in all cases: in vivo
[1] = tested on: Beet Armyworm (BAW) (Spodoptera exigua); assay: Bioassay on Beet Armyworm (BAW), 128-well diet tray assay; settings: 168 h, 50 μg/cm^2 on artificial diet, second instar larvae, five to seven days, 25° C., read-out: BAW % Control (or Mortality) rating
Description: (§1) Certain molecules disclosed in this document were tested against BAW and CL using procedures described in the following examples. In the reporting of the results, the “BAW & CL Rating Table” was used (See Table Section).
Bioassays on BAW were conducted using a 128-well diet tray assay. one to five second instar BAW larvae were placed in each well (3 mL) of the diet tray that had been previously filled with 1 mL of artificial diet to which 50 μg/cm^2 of the test compound (dissolved in 50 μL of 90:10 acetone-water mixture) had been applied (to each of eight wells) and then allowed to dry. Trays were covered with a clear self-adhesive cover, and held at 25° C., 14:10 light-dark for five to seven days. Percent mortality was recorded for the larvae in each well; activity in the eight wells was then averaged. The results are indicated in the tables entitled “Table ABC: Assay Results” and “Table ABCD: Assay Results” (See Table Section).

[2] = tested on: Cabbage Looper (CL) (Trichoplusia ni); assay: Bioassay on Cabbage Looper (CL), 128-well diet tray assay; settings: 168 h, 50 μg/cm^2 on artificial diet, second instar larvae, five to seven days, 25° C., read-out: CL % Control (or Mortality) rating
Description: as §1
Bioassays on CL were conducted using a 128-well diet tray assay. One to five second instar CL larvae were placed in each well (3 mL) of the diet tray that had been previously filled with 1 mL of artificial diet to which 50 μg/cm^2 of the test compound (dissolved in 50 μL of 90:10 acetone-water mixture) had been applied (to each of eight wells) and then allowed to dry. Trays were covered with a clear self-adhesive cover, and held at 25° C., 14:10 light-dark for five to seven days. Percent mortality was recorded for the larvae in each well; activity in the eight wells was then averaged. The results are indicated in the table entitled “Table ABC: Assay Results” and “Table ABCD: Assay Results” (See Table Section).

[3] = tested on: Yellow Fever Mosquito (YFM) (Aedes aegypti); assay: Bioassay on Yellow Fever Mosquito (YFM) larvae, 96-well plate; settings: about 1 day-old larvae, master plate 4000 ppm in DMSO diluted, scored on mortality after 3 days
Description: Certain molecules disclosed in this document were tested against YFM using procedures described in the following paragraph. In the reporting of the results, the “GPA & YFM Rating Table” was used (See Table Section).
Master plates containing 400 μg of a molecule dissolved in 100 μL of dimethyl sulfoxide (DMSO) (equivalent to a 4000 ppm solution) are used. A master plate of assembled molecules contains 15 μL per well. To this plate, 135 μL of a 90:10 water:acetone mixture is added to each well. A robot (Biomek® NXP Laboratory Automation Workstation) is programmed to dispense 15 μL aspirations from the master plate into an empty 96-well shallow plate (“daughter” plate). There are 6 reps (“daughter” plates) created per master. The created daughter plates are then immediately infested with YFM larvae.
The day before plates are to be treated, mosquito eggs are placed in Millipore water containing liver powder to begin hatching (4 g. into 400 mL). After the daughter plates are created using the robot, they are infested with 220 μL of the liver powder/larval mosquito mixture (about 1 day-old larvae). After plates are infested with mosquito larvae, a non-evaporative lid is used to cover the plate to reduce drying. Plates are held at room temperature for 3 days prior to grading. After 3 days, each well is observed and scored based on mortality.

SMILES	mortality at 50 µg/cm2 ([1]; Table ABC) [%]	mortality at 50 µg/cm2 ([2]; Table ABC) [%]	YFM % Control (or Mortality) rating ([3]; Table ABC)	mortality at 50 µg/cm2 ([1]; Table ABCD) [%]	mortality at 50 µg/cm2 ([2]; Table ABCD) [%]	YFM % Control (or Mortality) rating ([3]; Table ABCD)
Cc1ccc(NC(=S)NC(=O)NC2Cc3ccc(-c4ncn(-c5ccc(OC(F)(F)F)cc5)n4)cc3C2)c(C(C)C)c1 (stereo not drawn) [P5, 1-[(2-Isopropyl-4-methyl-phenyl)carbamothioyl]-3-[5-[1-[4-(trifluoromethoxy)phenyl]-1,2,4-triazol-3-yl]indan-2-yl]urea]	50 to 100	50 to 100	A (80-100)			
CC1CS/C(=N\C(=O)NC2Cc3ccc(-c4ncn(-c5ccc(OC(F)(F)F)cc5)n4)cc3C2)N(c2ccccc2C(C)C)C1 (stereo not drawn) [FA5, (Z)-1-(3-(2-Isopropylphenyl)-5-methyl-1,3-thiazinan-2-ylidene)-3-(5-(1-(4-(trifluoromethoxy)phenyl)-1H-1,2,4-triazol-3-yl)-2,3-dihydro-1H-inden-2-yl)urea]	50 to 100	50 to 100	A (80-100)			
CC(C)c1cc(F)ccc1NC(=S)NC(=O)NC1Cc2ccc(-c3ncn(-c4ccc(OC(F)(F)F)cc4)n3)cc2C1 (stereo not drawn) [P2, 1-[(4-Fluoro-2-isopropyl-phenyl)carbamothioyl]-3-[5-[1-[4-(trifluoromethoxy)phenyl]-1,2,4-triazol-3-yl]indan-2-yl]urea]	50 to 100	50 to 100	A (80-100)			
Cc1ccc(N2C(=O)CS/C2=N\C(=O)NC2Cc3ccc(-c4ncn(-c5ccc(OC(F)(F)F)cc5)n4)cc3C2)c(C(C)C)c1 (stereo not drawn) [P7, (Z)-1-(3-(2-Isopropyl-4-methylphenyl)-4-oxothiazolidin-2-ylidene)-3-(5-(1-(4-(trifluoromethoxy)phenyl)-1H-1,2,4-triazol-3-yl)-2,3-dihydro-1H-inden-2-yl)urea]	50 to 100	50 to 100	A (80-100)			
Cc1ccc(Cl)c(NC(=S)NC(=O)NC2CCc3cc(-c4ncn(-c5ccc(OC(F)(F)F)cc5)n4)ccc3C2)c1 (stereo not drawn) [P30, 1-[(2-Chloro-5-methyl-phenyl)carbamothioyl]-3-[6-[1-[4-(trifluoromethoxy)phenyl]-1,2,4-triazol-3-yl]tetralin-2-yl]urea]	50 to 100	50 to 100	A (80-100)			
COc1ccc(C(C)C)c(NC(=S)NC(=O)NC2Cc3ccc(-c4ncn(-c5ccc(OC(F)(F)F)cc5)n4)cc3C2)c1 (stereo not drawn) [P4, 1-[(2-Isopropyl-5-methoxy-phenyl)carbamothioyl]-3-[5-[1-[4-(trifluoromethoxy)phenyl]-1,2,4-triazol-3-yl]indan-2-yl]urea]	50 to 100	50 to 100	A (80-100)			
Cc1ccc(C(C)C)c(-n2c(C)cs/c2=N\C(=O)NC2Cc3ccc(-c4ncn(-c5ccc(OC(F)(F)F)cc5)n4)cc3C2)c1 (stereo not drawn) [P12, (Z)-1-(3-(2-Isopropyl-5-methylphenyl)-4-methylthiazol-2(3H)-ylidene)-3-(5-(1-(4-(trifluoromethoxy)phenyl)-1H-1,2,4-triazol-3-yl)-2,3-dihydro-1H-inden-2-yl)urea]	50 to 100	50 to 100	A (80-100)			
CC(C)c1ccc(Cl)cc1NC(=S)NC(=O)NC1Cc2ccc(-c3ncn(-c4ccc(OC(F)(F)F)cc4)n3)cc2C1 (stereo not drawn) [P3, 1-[(5-Chloro-2-isopropyl-phenyl)carbamothioyl]-3-[5-[1-[4-(trifluoromethoxy)phenyl]-1,2,4-triazol-3-yl]indan-2-yl]urea]	50 to 100	50 to 100	A (80-100)			
COc1ccc(N2C(=O)CS/C2=N\C(=O)NC2Cc3ccc(-c4ncn(-c5ccc(OC(F)(F)F)cc5)n4)cc3C2)c(C)c1 (stereo not drawn) [P6, (Z)-1-(3-(4-methoxy-2-methylphenyl)-4-oxothiazolidin-2-ylidene)-3-(5-(1-(4-(trifluoromethoxy)phenyl)-1H-1,2,4-triazol-3-yl)-2,3-dihydro-1H-inden-2-yl)urea]	50 to 100	50 to 100	A (80-100)			
Cc1ccc(C(C)C)c(N2CC(C)CS/C2=N\C(=O)NC2Cc3ccc(-c4ncn(-c5ccc(OC(F)(F)F)cc5)n4)cc3C2)c1 (stereo not drawn) [P18, (Z)-1-(3-(2-isopropyl-5-methylphenyl)-5-methyl-1,3-thiazinan-2-ylidene)-3-(5-(1-(4-(trifluoromethoxy)phenyl)-1H-1,2,4-triazol-3-yl)-2,3-dihydro-1H-inden-2-yl)urea]	50 to 100	50 to 100	A (80-100)			
COc1ccc(NC(=S)NC(=O)NC2Cc3ccc(-c4ncn(-c5ccc(OC(F)(F)F)cc5)n4)cc3C2)c(C)c1 (stereo not drawn) [P1]	50 to 100	50 to 100	A (80-100)			
CC(C)c1ccccc1NC(=S)NC(=O)NC1CCc2cc(-c3ncn(-c4ccc(OC(F)(F)F)cc4)n3)ccc2C1 (stereo not drawn) [P22, 1-[(2-Isopropylphenyl)carbamothioyl]-3-[6-[1-[4-(trifluoromethoxy)phenyl]-1,2,4-triazol-3-yl]tetralin-2-yl]urea]	50 to 100	50 to 100	A (80-100)			
Cc1ccc(C(C)C)c(N2C(=N)SCC2=O)c1 [C29, 2-imino-3-(2-isopropyl-5-methylphenyl)thiazolidin-4-one]				0 to 50	50 to 100	B (More than 0-Less than 80)
CCCc1ccc(C)cc1N1C(=O)CS/C1=N\C(=O)NC1CCc2cc(-c3ncn(-c4ccc(OC(F)(F)F)cc4)n3)ccc2C1 (stereo not drawn) [P34, (Z)-1-(3-(5-Methyl-2-propylphenyl)-4-oxothiazolidin-2-ylidene)-3-(6-(1-(4-(trifluoromethoxy)phenyl)-1H-1,2,4-triazol-3-yl)-1,2,3,4-tetrahydronaphthalen-2-yl)urea]	50 to 100	50 to 100	D (No activity noticed in this bioassay)			
Cc1ccc(C)c(NC(=S)NC(=O)NC2CCc3cc(-c4ncn(-c5ccc(OC(F)(F)F)cc5)n4)ccc3C2)c1 (stereo not drawn) [P25, 1-[(2,5-Dimethylphenyl)carbamothioyl]-3-[6-[1-[4-(trifluoromethoxy)phenyl]-1,2,4-triazol-3-yl]tetralin-2-yl]urea]	50 to 100	50 to 100	A (80-100)			
COc1ccc(C)cc1N1C(=O)CS/C1=N\C(=O)NC1CCc2cc(-c3ncn(-c4ccc(OC(F)(F)F)cc4)n3)ccc2C1 (stereo not drawn) [P38, (Z)-1-(3-(2-Methoxy-5-methylphenyl)-4-oxothiazolidin-2-ylidene)-3-(6-(1-(4-(trifluoromethoxy)phenyl)-1H-1,2,4-triazol-3-yl)-1,2,3,4-tetrahydronaphthalen-2-yl)urea]	50 to 100	50 to 100	A (80-100)			
Cc1ccc(C(C)C)c(N2CCCS/C2=N\C(=O)NC2Cc3ccc(-c4ncn(-c5ccc(OC(F)(F)F)cc5)n4)cc3C2)c1 (stereo not drawn) [P20, (Z)-1-(3-(2-Isopropyl-5-methylphenyl)-1,3-thiazinan-2-ylidene)-3-(5-(1-(4-(trifluoromethoxy)phenyl)-1H-1,2,4-triazol-3-yl)-2,3-dihydro-1H-inden-2-yl)urea]	50 to 100	50 to 100	A (80-100)			
CCc1cccc(C)c1NC(=S)NC(=O)NC1CCc2cc(-c3ncn(-c4ccc(OC(F)(F)F)cc4)n3)ccc2C1 (stereo not drawn) [P29, 1-[(2-Ethyl-6-methyl-phenyl)carbamothioyl]-3-[6-[1-[4-(trifluoromethoxy)phenyl]-1,2,4-triazol-3-yl]tetralin-2-yl]urea]	50 to 100	50 to 100	A (80-100)			
